Data as given in the NIST ThermoML archive (doi:10.1016/j.jct.2018.09.036).
Numbers after ± are expanded uncertainties.

Experiment: mn = molality of the nth substance listed, in mol/kg
Conditions: 298.15 K, 99.7 kPa, Liquid; for viscosity: Falling or rolling sphere viscometry; for mass density: Vibrating tube method

| Compound | viscosity (m1 = 0.15) [mPa·s] | viscosity (m1 = 0.3) [mPa·s] | viscosity (m1 = 0.45) [mPa·s] | viscosity (m1 = 0.6) [mPa·s] | viscosity (m1 = 0.7) [mPa·s] | viscosity (m1 = 0.8) [mPa·s] | mass density (m1 = 0.15) [kg/m3] | mass density (m1 = 0.3) [kg/m3] | mass density (m1 = 0.45) [kg/m3] | mass density (m1 = 0.6) [kg/m3] | mass density (m1 = 0.7) [kg/m3] | mass density (m1 = 0.8) [kg/m3] | viscosity (m2 = 0) [mPa·s] | further results |
| --- | --- | --- | --- | --- | --- | --- | --- | --- | --- | --- | --- | --- | --- | --- |
| CCCCn1cc[n+](C)c1.[Br-] [1-butyl-3-methylimidazolium bromide] + O | 0.922 ± 0.02 | 0.974 ± 0.021 | 1.028 ± 0.022 | 1.084 ± 0.024 | 1.121 ± 0.025 | 1.164 ± 0.025 | 1004.39 ± 0.34 | 1011.43 ± 0.41 | 1018.2 ± 0.5 | 1024.73 ± 0.6 | 1028.96 ± 0.66 | 1033.08 ± 0.35 | – | – |
| O [water] + NCC(=O)O | – | – | – | – | – | – | – | – | – | – | – | – | 0.89 ± 0.019 | – |
| O [water] + CCCCn1cc[n+](C)c1.[Br-] | – | – | – | – | – | – | – | – | – | – | – | – | 0.89 ± 0.019 | – |
| NCC(=O)O [2-aminoacetic acid] + O | 0.908 ± 0.019 | 0.927 ± 0.02 | – | – | – | – | 1001.78 ± 0.32 | 1006.42 ± 0.35 | – | – | – | – | – | viscosity (m1 = 0.1): 0.902 ± 0.019 mPa·s; viscosity (m1 = 0.2): 0.914 ± 0.019 mPa·s; viscosity (m1 = 0.25): 0.92 ± 0.02 mPa·s; viscosity (m1 = 0.35): 0.934 ± 0.02 mPa·s; mass density (m1 = 0.1): 1000.22 ± 0.31 kg/m3; mass density (m1 = 0.2): 1003.34 ± 0.33 kg/m3; mass density (m1 = 0.25): 1004.88 ± 0.34 kg/m3; mass density (m1 = 0.35): 1007.94 ± 0.31 kg/m3 |
| CCCCCCn1cc[n+](C)c1.[Br-] [3-hexyl-1-methyl-1H-imidazolium bromide] + O | 0.947 ± 0.02 | 1.018 ± 0.022 | 1.093 ± 0.024 | 1.169 ± 0.026 | 1.221 ± 0.027 | 1.273 ± 0.027 | 1003.87 ± 0.33 | 1010.37 ± 0.4 | 1016.58 ± 0.47 | 1022.49 ± 0.56 | 1026.26 ± 0.6 | 1029.91 ± 0.35 | – | – |
| CCn1cc[n+](C)c1.[Br-] [1-ethyl-3-methylimidazolium bromide] + O | 0.899 ± 0.019 | 0.93 ± 0.02 | 0.961 ± 0.021 | 0.992 ± 0.021 | 1.013 ± 0.022 | 1.036 ± 0.022 | 1004.96 ± 0.34 | 1012.56 ± 0.43 | 1019.92 ± 0.53 | 1027.01 ± 0.64 | 1031.63 ± 0.71 | 1036.11 ± 0.35 | – | – |
| O [water] + CCCCCCn1cc[n+](C)c1.[Br-] | – | – | – | – | – | – | – | – | – | – | – | – | 0.89 ± 0.019 | – |
| O [water] + CCn1cc[n+](C)c1.[Br-] | – | – | – | – | – | – | – | – | – | – | – | – | 0.89 ± 0.019 | – |
